Data: article PMC13626384 (Journal of medicinal chemistry, 2025)
Like-named read-outs stand apart in the source and are kept apart here.

Assays:
D283-med cell line = experiment: Cytotoxicity against D283-med cells; type: cell-based, human
H460 cell line = experiment: Cytotoxicity against H460 cells; type: cell-based; details: read-out: H460 IC50; non-small cell lung cancer cell line
Plasma stability = type: in vitro ADME; details: mouse plasma
[1] = PAMPA-BBB permeability assay; details: PAMPA-BBB
[2] = biological target: human immunoproteasome (i20S) β5 (Homo sapiens, UniProt P20618+P28062); experiment: Proteasome subunit inhibition, i20S β5; type: biochemical; details: read-out: i20S β5 IC50 ± SD; read 60 to 90 minutes after start
[3] = biological target: human immunoproteasome (i20S) β1 (Homo sapiens, UniProt P28065+P40306); experiment: Proteasome subunit inhibition, i20S β1; type: biochemical; details: read-out: i20S β1 IC50 ± SD; read 60 to 90 minutes after start
SF188 cell line = experiment: Cytotoxicity against SF188 cells; type: cell-based, human
[4] = biological target: human immunoproteasome (i20S) β2 (Homo sapiens, UniProt P40306+P49720); experiment: Proteasome subunit inhibition, i20S β2; type: biochemical; details: read-out: i20S β2 IC50 ± SD; read 60 to 90 minutes after start
Caco-2 cells = experiment: Caco-2 cell permeability and efflux; type: in vitro ADME, human
[5] = Liver microsomal stability; details: mouse liver microsomes
[6] = Caco-2 cell permeability and efflux; type: in vitro ADME, human; details: human, Caco-2
[7] = read-out: D283-med IC50, medulloblastoma cell line
[8] = read-out: SF188 IC50, glioblastoma cell line

Compound	IC50 (D283-med cell line; [7])	IC50 (H460 cell line)	% Recovery [1]	Mean Permeability [1]	IC50 (SF188 cell line; [8])	also measured
CC(C)C[C@H](NC(=O)[C@@H]1Cc2c(F)c(F)c(c(F)c2F)Sc2cccc(c2)CC(=O)N[C@@H]([C@@H](C)O)C(=O)N1)C(=O)[C@@]1(C)CO1 [Compound 14, (5S,8S)-3^2,3^3,3^5,3^6-Tetrafluoro-8-((R)-1-hydroxyethyl)-N-((S)-4-methyl-1-((R)-2-methyloxiran-2-yl)-1-oxopentan-2-yl)-7,10-dioxo-2-thia-6,9-diaza-1(1,3),3(1,4)-dibenzenacycloundecaphane-5-carboxamide]	0.02 ± 0.001 µM	0.186 ± 0.052 µM	53%	3.75 10^−6 cm/sec	0.04 ± 0.009 µM	Plasma Stability % remaining (Plasma stability; after 5 hr): more than 75%; Pe (effective permeability) [1]: around 4 10^−6 cm s^−1; IC50 [2]: 0.858 ± 0.342 µM; IC50 [3]: 0.31 ± 0.0395 µM; IC50 [4]: 1.06 ± 0.171 µM
CC(C)C[C@H](NC(=O)[C@@H]1Cc2c(F)c(F)c(c(F)c2F)S(=O)(=O)c2cccc(c2)CC(=O)N[C@@H](C(C)(C)O)C(=O)N1)C(=O)[C@@]1(C)CO1 [Compound 24, (5S,8S)-3^2,3^3,3^5,3^6-Tetrafluoro-8-(2-hydroxypropan-2-yl)-N-((S)-4-methyl-1-((R)-2-methyloxiran-2-yl)-1-oxopentan-2-yl)-7,10-dioxo-2-thia-6,9-diaza-1(1,3),3(1,4)-dibenzenacycloundecaphane-5-carboxamide 2,2-dioxide]	0.054 ± 0.002 µM	0.41 ± 0.059 µM	79%	2.06 10^−6 cm/sec	0.1 ± 0.007 µM	
CC(C)C[C@H](NC(=O)[C@@H]1Cc2c(F)c(F)c(c(F)c2F)S(=O)(=O)c2cccc(c2)CC(=O)N[C@@H]([C@H](C)O)C(=O)N1)C(=O)[C@@]1(C)CO1 [Compound 27, (5S,8S)-3^2,3^3,3^5,3^6-Tetrafluoro-8-((S)-1-hydroxyethyl)-N-((S)-4-methyl-1-((R)-2-methyloxiran-2-yl)-1-oxopentan-2-yl)-7,10-dioxo-2-thia-6,9-diaza-1(1,3),3(1,4)-dibenzenacycloundecaphane-5-carboxamide 2,2-dioxide]	0.028 ± 0.01 µM	0.36 ± 0.056 µM	88%	1.40 10^−6 cm/sec	0.072 ± 0.01 µM	
CC(C)C[C@H](NC(=O)[C@@H]1Cc2c(F)c(F)c(c(F)c2F)S(=O)(=O)c2ccc(cc2)CCC(=O)N[C@@H](C(C)C)C(=O)N1)C(=O)[C@@]1(C)CO1 [Compound 29, (5S,8S)-3^2,3^3,3^5,3^6-Tetrafluoro-8-isopropyl-N-((S)-4-methyl-1-((R)-2-methyloxiran-2-yl)-1-oxopentan-2-yl)-7,10-dioxo-2-thia-6,9-diaza-1,3(1,4)-dibenzenacyclododecaphane-5-carboxamide 2,2-dioxide]	0.146 ± 0.029 µM	0.47 ± 0.154 µM			0.15 ± 0.012 µM	
CC(C)C[C@H](NC(=O)[C@@H]1Cc2c(F)c(F)c(c(F)c2F)S(=O)(=O)c2cccc(c2)CC(=O)NCC(=O)N1)C(=O)[C@@]1(C)CO1 [Compound 32, (S)-32,33,35,36-Tetrafluoro-N-((S)-4-methyl-1-((R)-2-methyloxiran-2-yl)-1-oxopentan-2-yl)-7,10-dioxo-2-thia-6,9-diaza-1(1,3),3(1,4)-dibenzenacycloundecaphane-5-carboxamide 2,2-dioxide]	0.563 ± 0.046 µM	4.54 µM			7.23 µM	
CC(C)C[C@H](NC(=O)[C@@H]1Cc2ccc(cc2)OCCCCCC(=O)N[C@@H](C(C)C)C(=O)N1)C(=O)[C@@]1(C)CO1 [Compound 33, (10S,13S)-10-Isopropyl-N-((S)-4-methyl-1-((R)-2-methyloxiran-2-yl)-1-oxopentan-2-yl)-8,11-dioxo-2-oxa-9,12-diaza-1(1,4)-benzenacyclotetradecaphane-13-carboxamide]	0.0101 ± 0.0021 µM	0.053 ± 0.015 µM	87%	1.49 10^−6 cm/sec	0.0122 ± 0.0004 µM	IC50 [2]: 0.0329 ± 0.0059 µM; IC50 [3]: 0.0817 ± 0.0086 µM; IC50 [4]: 0.0674 ± 0.0084 µM
CC(C)C[C@H](NC(=O)[C@@H]1Cc2ccc(cc2)SCCCCCC(=O)NC(C)(C)C(=O)N1)C(=O)[C@@]1(C)CO1 [Compound 36, (S)-10,10-Dimethyl-N-((S)-4-methyl-1-((R)-2-methyloxiran-2-yl)-1-oxopentan-2-yl)-8,11-dioxo-2-thia-9,12-diaza-1(1,4)-benzenacyclotetradecaphane-13-carboxamide]	1.44 µM	2.33 µM			2.26 µM	
CC(C)C[C@@H](NC(=O)[C@@H]1Cc2ccc(cc2)S(=O)(=O)CCCCCC(=O)NC(C)(C)C(=O)N1)C(=O)[C@@]1(C)CO1 [Compound 37, (S)-10,10-Dimethyl-N-((R)-4-methyl-1-((R)-2-methyloxiran-2-yl)-1-oxopentan-2-yl)-8,11-dioxo-2-thia-9,12-diaza-1(1,4)-benzenacyclotetradecaphane-13-carboxamide 2,2-dioxide]	0.59 ± 0.02 µM	1.72 µM			4.42 µM	
CC(C)C[C@H](NC(=O)[C@@H]1Cc2ccc(cc2)S(=O)(=O)CCCCCC(=O)NC(C(C)C)C(=O)N1)C(=O)[C@@]1(C)CO1 (stereo partly drawn) [Compound 38, (13S)-10-Isopropyl-N-((S)-4-methyl-1-((R)-2-methyloxiran-2-yl)-1-oxopentan-2-yl)-8,11-dioxo-2-thia-9,12-diaza-1(1,4)-benzenacyclotetradecaphane-13-carboxamide 2,2-dioxide]	0.016 ± 0.002 µM	0.287 ± 0.042 µM	99%	0.27 10^−6 cm/sec	0.157 ± 0.045 µM	
CC(C)C[C@H](NC(=O)[C@@H]1CSCCCCCCCCCC(=O)N[C@@H](C(C)C)C(=O)N1)C(=O)[C@@]1(C)CO1 [Compound 39]	0.0148 ± 0.0023 µM	0.079 ± 0.021 µM	44%	3.43 10^−6 cm/sec	0.02 ± 0.003 µM	Plasma Stability % remaining (Plasma stability; after 2 hr): 87 after 2 hr %; Plasma Stability % remaining (Plasma stability; after 5 hr): more than 75%; Pe (effective permeability) [1]: around 4 10^−6 cm s^−1; IC50 [2]: 0.0639 ± 0.0072 µM; IC50 [3]: 0.099 ± 0.0084 µM; Efflux Ratio (Caco-2 cells; Caco-2): 1.5; % Recovery (A-B) (Caco-2 cells; Caco-2, A-B direction): 67%; % Recovery (B-A) (Caco-2 cells; Caco-2, B-A direction): 74%; Pe (A-B) (Caco-2 cells; Caco-2, apical to basolateral): 9.8 10^−6 cm/sec; Pe (B-A) (Caco-2 cells; Caco-2, basolateral to apical): 14.6 10^−6 cm/sec; Microsomal Stability Clearance Category [5]: Medium; Microsomal Stability mCLint [5]: 33 µL/min/mg; Microsomal Stability t1/2 [5]: 42 min; IC50 [4]: 0.0453 ± 0.0031 µM
C[C@H]1O[C@@H](O[C@H]2[C@@H](O)C[C@H](O[C@H]3[C@@H](O)C[C@H](O[C@H]4CC[C@@]5(C)[C@H](CC[C@@H]6[C@@H]5C[C@@H](O)[C@]5(C)[C@@H](C7=CC(=O)OC7)CC[C@]65O)C4)O[C@@H]3C)O[C@@H]2C)C[C@H](O)[C@@H]1O [Digoxin, reference compound]						Papp A→B [6]: 1.3 ×10⁻⁶ cm/s; Papp B→A [6]: 13 ×10⁻⁶ cm/s
Cn1cc(CNCC2CCN(c3ncc(C(=O)NO)cn3)CC2)c2ccccc21 [Quisinostat, reference compound]	0.037 ± 0.002 µM	0.03 ± 0.003 µM			0.043 ± 0.002 µM	IC50 (D283-med cell line; Homo sapiens, D283 Med, read-out: D283-med IC50, medulloblastoma cell line): 0.03 to 0.043 µM; IC50 (SF188 cell line; Homo sapiens, SF-188, read-out: SF188 IC50, glioblastoma cell line): 0.03 to 0.043 µM
(5S,8S)-3^2,3^3,3^5,3^6-Tetrafluoro-8-isopropyl-9-methyl-N-((S)-4-methyl-1-((R)-2-methyloxiran-2-yl)-1-oxopentan-2-yl)-7,10-dioxo-2-thia-6,9-diaza-1(1,3),3(1,4)-dibenzenacycloundecaphane-5-carboxamide 2,2-dioxide [Compound 30]	1.47 µM	3.2 µM			1.68 µM	
(5S,8S)-32,33,35,36-Tetrafluoro-8-isopropyl-N-((S)-4-methyl-1-((R)-2-methyloxiran-2-yl)-1-oxopentan-2-yl)-7,10-dioxo-2-thia-6,9-diaza-1,3(1,4)-dibenzenacyclododecaphane-5-carboxamide [Compound 18]	0.232 ± 0.012 µM	1.08 µM			0.239 ± 0.01 µM	
(S)-10,10-Dimethyl-N-((S)-4-methyl-1-((R)-2-methyloxiran-2-yl)-1-oxopentan-2-yl)-8,11-dioxo-2-oxa-9,12-diaza-1(1,4)-benzenacyclotetradecaphane-13-carboxamide [Compound 34]	2.08 µM	4.52 µM			2.91 µM	
